The values that follow come from US20240156965A1, “DICHALCOGENIDE PRODRUGS” (Ludwig-Maximilians-Universitat Munchen, priority 2021, published 2024).

One data set addresses T1, TrxR1 (Homo sapiens, UniProt Q16881).
T1 construct: endogenous in cells
T1 sequence (Q16881 151-649 limits assumed): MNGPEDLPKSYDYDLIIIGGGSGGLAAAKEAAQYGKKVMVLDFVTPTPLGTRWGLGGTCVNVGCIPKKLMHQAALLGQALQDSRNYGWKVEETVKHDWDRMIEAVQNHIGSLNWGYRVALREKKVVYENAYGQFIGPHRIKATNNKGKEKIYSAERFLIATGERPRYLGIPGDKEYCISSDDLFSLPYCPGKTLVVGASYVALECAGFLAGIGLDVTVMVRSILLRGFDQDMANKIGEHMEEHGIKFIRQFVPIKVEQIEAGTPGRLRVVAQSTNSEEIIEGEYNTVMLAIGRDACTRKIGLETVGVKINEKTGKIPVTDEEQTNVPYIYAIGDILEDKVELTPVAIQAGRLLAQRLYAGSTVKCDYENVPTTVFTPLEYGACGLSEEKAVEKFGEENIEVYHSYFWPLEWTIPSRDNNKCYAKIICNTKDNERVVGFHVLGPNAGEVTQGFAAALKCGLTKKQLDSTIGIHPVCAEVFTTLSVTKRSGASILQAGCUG
As to the kind of experiment: Cellular quantitative HTS for TrxR1 inhibitors using P6 (LOPAC1280). The note with it: for activity / hit status in cellular P6 screen: hits classed up to 20 μM; for pIC50 comparison between BAY 11-7085 and BAY 11-7082: despite ca. 1.1 Log P difference. In kind it is cell-based. From the text:
The stability and constant environment of P6's signal (crystallising fluorophore, protected from interferences), its low background (ESIPT quenched probe) and low crosstalk (high Stokes shift), and its ability to directly generate a readout, were promising features. We therefore set out to develop the first cellular quantitative HTS (qHTS) assay for TrxR1 inhibitors, using P6, and performing pilot screening with the 1280-compound LOPAC1280 library. LOPAC is intended to cover drugs and drug-like scaffolds with much comparative data on target selectivity, potency, cellular and in vivo bioactivity, without focus on any particular mechanism of action. The LOPAC library was used in the only previously reported qHTS enzymatic TrxR assay (in 2011), and there is 82% overlap in composition between the 2011 and 2021 version (Prast-Nielsen, S. et al., Free Radical Biology and Medicine 50, 1114-1123 (2011)).
Cellular screening using P6, optimized for HTS with 1536-well plates (assay volume 6 μL, 500 cells/well) over 4 h run-time, reproduced the strong performance seen in 96-well format. Untreated vs no-cell controls gave a 7-fold raw signal to background ratio [S:B] without background compensation, with a high Z′ value of 0.64, suitable for HTS (FIG. 5a). P6 signal was linear over the assay time, and linearly reflected turnover rate (varied P6 concentration or cell count; FIG. 5b). Pre-incubating cells for 1 h with reference inhibitors prior to P6 gave concentration-dependent inhibition consistent with reported values (FIG. 5c).
A LOPAC1280 screen using this assay protocol performed well (Z′=0.63, S:B 7:1). Compounds with apparent toxicity within the assay time were excluded by a separate viability counter-assay. Moderate cut-off criteria (IC50<20 μM and curve form) gave a <1.5% hit rate (18 of 1278 compounds, plus TRi-1 and TRi-2; FIG. 5d). […] Matching expectations, with the exception of auranofin, none of these species approached the potency of TRi-1 (Stafford, W. C. et al., Sci. Transl. Med. 10, eaaf7444 (2018)).

Data set [1] has as its system TrxR. The note with it: cell-free; cited from earlier work.
In data set [2] the target is T2, TrxR (Rattus norvegicus, UniProt O89049).
T2 sequence (O89049 1-499): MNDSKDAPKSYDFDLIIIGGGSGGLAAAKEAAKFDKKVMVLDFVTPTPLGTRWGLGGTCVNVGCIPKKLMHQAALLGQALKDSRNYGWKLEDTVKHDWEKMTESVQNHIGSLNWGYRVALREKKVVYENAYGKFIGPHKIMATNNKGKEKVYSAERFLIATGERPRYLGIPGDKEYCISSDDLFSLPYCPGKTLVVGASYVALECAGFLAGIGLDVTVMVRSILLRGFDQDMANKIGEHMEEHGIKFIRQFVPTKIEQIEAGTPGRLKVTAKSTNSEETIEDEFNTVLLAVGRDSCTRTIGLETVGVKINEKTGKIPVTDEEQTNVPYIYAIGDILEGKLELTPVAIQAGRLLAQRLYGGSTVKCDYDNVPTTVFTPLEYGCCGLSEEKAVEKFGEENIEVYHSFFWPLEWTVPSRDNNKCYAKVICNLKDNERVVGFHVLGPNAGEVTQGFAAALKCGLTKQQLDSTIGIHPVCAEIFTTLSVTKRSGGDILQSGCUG
The settings on record: cited from earlier work.

Data set [3] is described as follows: Challenge with monothiol reductant GSH, cell-free fluorogenic cargo release. In kind it is physicochemical. The note with it: 10 μM probe; for sensitivity to GSH in GSH titration, signal F/F^TCEP: 3 h timepoint, GSH up to 10 mM; for resistance to GSH-triggered release of fluorescent cargo PQ-OH (timecourse): supraphysiological GSH 10 mM, TE buffer pH 7.4, 37 °C; for cargo release when challenged with GSH / GSH system reductants: relevant cellular levels. The source says:
(§1) This cell-free assay examined the stability of dichalcogenide-based reduction-triggered compounds of the invention when exposed to cellular monothiol reductant GSH, and its cellular partner reductants glutathione reductase (GR) and glutaredoxins (Grx1 and Grx2).
(§2) Assay Conditions: A black 96-well plate with black bottom was charged with solutions of fluorophore-releasing reduction-triggered probes that are compounds of the invention (P1, P2, P3, P6 and P7) or that are not compounds of the invention and reveal the performance of prior art systems (disulfide X26), reaching 100 μL final volume, 1% final DMSO, 10 μM probe, aq. TE buffer (pH 7.4), with the indicated concentrations of reductant (in FIG. 1a) or concentration ratios of reductant to probe (in FIG. 1b-d). TCEP (100 μM) was used as a quantitative reference reductant; and in the GR/GSH/Grx assays (FIG. 1c-d), GR was used at 20 nM, GSH at 100 μM, to maintain Grx in a reduced state suitable for challenging the probes without supplying a high concentration of either GSH or GR. Reaction mixtures were incubated at 37° C. for up to 6 h while measuring fluorescence intensity F over time, using a BMG Labtech FLUOstar Omega platereader (λexc=355 nm, λem=530 nm).
(§3) Data Representation: F^TCEP is the maximum possible fluorescence increase, corresponding to complete reduction-triggered cargo release by the TCEP incubation. F/F^TCEP thus gives the fluorescence intensity, as a fraction of the maximum possible fluorescence signal, at the indicated times.

Data set [4] relates to glutaredoxins (Grx1 and Grx2) with GR and GSH. As to the kind of experiment: Challenge with GR/GSH/Grx system reductants, cell-free. The settings on record: 10 μM probe, GR 20 nM, GSH 100 μM, Grx1 or Grx2 up to physiological concentrations. In kind it is biochemical.
Text: as §1, §2, §3

Data set [5] addresses T3, human recombinant thioredoxin reductase 1 (TrxR1) (Homo sapiens, UniProt Q16881).
T3 sequence (Q16881 1-499 isoform Q16881-5): T1 sequence (Q16881 151-649 limits assumed)
As to the kind of experiment: Enzymatic activation assay with TrxR1, cell-free. In kind it is biochemical. The note with it: 10 μM probe, 20 nM TrxR1, 100 μM NADPH, 37 °C. The protocol: This cell-free assay (see FIG. 2) examined the processing of dichalcogenide-based fluorophore-releasing reduction-triggered probes that are compounds of the invention, by components of the cellular thioredoxin system.
Assay conditions and data representation: A black 96-well plate with black bottom was charged with solutions of probes (P1, P2, P3, P6, P7) to reach final reaction conditions: 100 μL of aq. TE buffer (pH 7.4), 10 μM probe concentration, 1 vol % DMSO, and 20 nM of human recombinant thioredoxin reductase 1 (TrxR1; in FIG. 1a), or 20 nM of either TrxR1 or thioredoxin reductase Sec498Cys mutant (TrxR1 U498C or “mut”; in FIG. 1b), or the indicated probe-to-reductant concentration ratios of TrxR1 (in FIG. 1c) or human recombinant thioredoxin 1 (Trx1; in FIG. 1d); with the final step being the addition of NADPH (100 μM final). The reaction mixtures were incubated at 37° C. for 3 to 6 h as shown with timecourse measurements of fluorescence as for FIG. 1. Data representation as for FIG. 1.

In data set [6] the test system is HeLa cervical cancer cell line. As to the kind of experiment: Cellular reduction assay in HeLa cells (fluorescence timecourse). The class given is cell-based, human. The settings on record: time- and dose-dependence. The protocol:
Assay Conditions: Cells were cultured under standard conditions (Gao, L. et al. Cell Chemical Biology 2021, 28, 1-14. https://doi.org/10.1016/j.chembiol.2020.11.007), left to adhere for 24 h, then compounds were added to 100 μM with 1% vol DMSO. Fluorescence timecourse measurements were acquired as in the chemoreductant assay, with all conditions in triplicates.
Data Representation: F.I.(t) is the fluorescence intensity signal increase as compared to time zero signal (fluorescence intensity immediately following compound addition, before probe activation could occur), in arbitrary units although with the same detection settings for all probes releasing the same cargo. This corresponds to reduction-triggered cargo release.

Entries after “also recorded” stand apart in the source; their conditions may differ.

As for `NC1(C(=O)O)CCc2cc(C(=O)O)ccc21` (stereo not drawn) [AIDA], the “activity / hit status in cellular P6 screen” value (“activity / hit status” below) on TrxR1 is recorded as “non-obvious hit”.

For the molecule `Cc1ccc(S(=O)(=O)/C=C/C#N)cc1` [BAY 11-7082], the “pIC50 comparison between BAY 11-7085 and BAY 11-7082” value on TrxR1 is given as “no change”.

In the case of `CC(C)(C)c1ccc(S(=O)(=O)/C=C/C#N)cc1` [BAY 11-7085], the “pIC50 comparison between BAY 11-7085 and BAY 11-7082” value against TrxR1 is given as “no change”.

In the case of `CN(N=O)c1cc(O)ccc1O` [Dephostatin], at TrxR1 (shared hits of cellular and cell-free qHTS), the “ratio of cell-free to cellular potency (potency loss in cells)” value is given as more than 10 fold.

In the case of `OC1C[Se][Se]CC1O` (stereo not drawn) [E3], the “reduction by TrxR in vitro” value in the data set on TrxR [1] is given as “processed by TrxR”.

With `NC1CC[Se][Se]C1` (stereo not drawn) [E4], the “reduction by TrxR in vitro” value with TrxR [1] is recorded as “resistant to TrxR”.

With `Oc1ccc2ccccc2c1SSc1c(O)ccc2ccccc12` [IPA-3], the “activity / hit status” value at TrxR1 is recorded as “active in the cellular screen”. The “activity in enzymatic (cell-free) TrxR screen” value at TrxR [2] is “inactivity in the enzymatic assay”.

Take `CN(C(=O)Oc1ccc(Cl)cc1-c1nc2ccc(Cl)cc2c(=O)[nH]1)C1CCS[Se]C1` (stereo not drawn) [P1]: in data set [3], the “sensitivity to GSH in GSH titration, signal F/F^TCEP” value (“sensitivity to GSH in GSH titration” for short) is “completely insensitive”; the “resistance to GSH-triggered release of fluorescent cargo PQ-OH (timecourse)” value (from here on “resistance to GSH-triggered release”) is “entirely”; the “cargo release when challenged with GSH / GSH system reductants” value is on record as “totally resisted releasing cargo”.

With `CN(C(=O)Oc1ccc(Cl)cc1-c1nc2ccc(Cl)cc2c(=O)[nH]1)C1CC[Se]SC1` (stereo not drawn) [P2], in data set [3], the “sensitivity to GSH in GSH titration” value is recorded as “very low sensitivity”; the “resistance to GSH-triggered release” value is listed as “majorly”; the “cargo release when challenged with GSH / GSH system reductants” value is “high resistance to GSH challenge”. Besides, in data set [4], the “triggering by GR/GSH/Grx systems” value is on record as “total resistance to Grx challenge”.

In the case of `CN(C(=O)Oc1ccc(Cl)cc1-c1nc2ccc(Cl)cc2c(=O)[nH]1)C1CC[Se][Se]C1` (stereo not drawn) [P3], in data set [3], the “sensitivity to GSH in GSH titration” value is on record as “completely insensitive”; the “resistance to GSH-triggered release” value is reported as “entirely”; the “cargo release when challenged with GSH / GSH system reductants” value was “totally resisted releasing cargo”. The “cargo release on exposure to TrxR1 (timecourse)” value in data set [5] is reported as “stable to this challenge; also recorded: nonresponsive to TrxR”.

Take `CN1CCN(C(=O)CCN(C(=O)Oc2ccc(Cl)cc2-c2nc3ccc(Cl)cc3c(=O)[nH]2)C2CCCCC2)CC1` [X28, reference compound]: the “fluorescence signal generation F.I.(t) in HeLa cells” value in data set [6] is “does not generate signal; also recorded: did not generate signal”.

With `OC[C@H]1O[C@H]([S-])[C@H](O)[C@@H](O)[C@@H]1O.[Au+]` [aurothioglucose], the “pIC50/potency lower than auranofin” value at TrxR1 (relative to ester prodrug auranofin) is reported as 10 fold.

Regarding `C=CCN1CCc2c(cc(O)c(O)c2Cl)C(c2ccccc2)C1` (stereo not drawn) [chloro-APB], the “activity / hit status” value on TrxR1 is listed as “active in the cellular screen”. In addition, the “activity in enzymatic (cell-free) TrxR screen” value on TrxR [2] was “inactivity in the enzymatic assay”.

Take `COC[C@H]1OC(=O)c2coc3c2[C@@]1(C)C1=C(C3=O)[C@@H]2CCC(=O)[C@@]2(C)C[C@H]1OC(C)=O` [wortmannin]: at TrxR [2], the “activity in enzymatic (cell-free) TrxR screen” value is recorded as “activity in the enzymatic screen”.
